Values of other authors as cited in US20250144120A1, “COMPOSITIONS AND METHODS FOR TREATING SKIN CONDITIONS” (priority 2023, published 2025).

**Q.** Which LD50 via ingestion (animal subjects; ingestion) does the source give for `CCCCCCCCCCCCCCCCCCCCC[N+](C)(C)[Si](O)(O)O.[Cl-]` [Octadecyldimethyltrihydroxysilyl propyl ammonium chloride] here?
**A.** > 5000 mg/kg

**Q.** What about the LD50 via inhalation (animal subjects; inhalation) of the same compound?
**A.** > 2 mg/L

**Q.** What about the skin irritation (skin (guinea pigs)) of the same compound?
**A.** does not irritate

**Q.** What about the skin irritation (skin (rabbits)) of the same compound?
**A.** does not irritate

**Q.** What about the eye irritation (eyes (rabbits)) of the same compound?
**A.** does not irritate
